We go through three compounds from US20060009475A1, “Quinazolinone compounds in combined modalities for improved cancer treatment” (priority 2001, published 2006).

The subject of series [1] is rabbit aortic smooth muscle cells (SMC). Put plainly: [3H]-thymidine incorporation / cell cycle arrest in serum-stimulated smooth muscle cells. Type of series: cell-based. On the procedure: Experiments were conducted to determine the specific phase of the cell cycle in which SMC treated with halofuginone were arrested.
As determined by [^3H]-thymidine incorporation, addition of 10% FBS to growth-arrested, quiescent SMC promotes entry of the cells to S phase after a G1 period of 16 hours. Maximal DNA synthesis was seen 20 hours after serum-stimulation (FIG. 1).
It was next determined whether halofuginone arrested proliferation at a specific stage in the cell cycle. For these experiments, quiescent SMCs were kept in 10% FBS plus 10^−7 M halofuginone for 24 hours. The cultures were then washed and placed in 10% FBS with [^3H]-thymidine and without halofuginone. At various times after halofuginone removal, the cells were harvested and thymidine incorporation was determined. When halofuginone-treated cells were released from growth-arrest, there was a lag of 4-6 hours before initiation of DNA synthesis, which peaked by 10 hours (FIG. 1).
In general terms: Uptake of a labelled nucleoside into DNA is a usual measure of proliferation.

The test system of series [2] is rat mesangial cells (RMC). Put plainly: Cell cycle analysis of mesangial cells by propidium iodide FACScan. Type of series: cell-based. Conditions: 150 ng/ml halofuginone, 24 hours, 10% FCS. On the procedure:
Further experiments were conducted to determine whether halofuginone arrests mesangial cell proliferation at a specific phase of the cell cycle.
For this purpose sub confluent RMC's were kept in 10% FCS in the absence or presence of 150 ng/ml halofuginone for 24 hours. The cells were then harvested, stained with propidium iodide and analyzed by FACScan. The percentage of cells progressing into G2/M phase was reduced by halofuginone from 20% to 7%. The percentage of cells in G0/G1 was increased from 38% in the absence of halofuginone to 65% in the presence of halofuginone.

In another series the test system is U266 cells. Put plainly: Cell cycle analysis of multiple myeloma cells by flow cytometry. Type of series: cell-based. Conditions: 48 hours, different concentrations. On the procedure:
Multiple Myeloma (MM) cell line U266B1 was purchased from ATCC (TIB-196).
Cells (10^6) were incubated for 48 hours with different concentrations of halofuginone. The cells were permeabilized with 70% ethanol in PBS for 30 minutes at 4° C., and then incubated with 0.5 ml of a 50 μg/ml Propidium Iodide solution containing 20 U/ml RnaseA for 30 minutes. Cells were analyzed by flow cytometry.
On the technique in general: A flow cytometer gives signals particle by particle.

The subject of series [3] is radiation-induced fibrosis (leg contraction). Put plainly: Leg contraction model of radiation-induced fibrosis. The format is in vivo, mice. Here is the method:
Mice were injected intraperitoneally once daily with 1-5 μg/mouse of halofuginone, for a period of 4 months.
The right leg only of each animal was radiated with 35Gy or 45Gy. […] Measurements were taken within time periods of 2 to 4 months after radiation.

Series [4] relates to pancreatic cancer cell lines 3602 Xrt and 3602 Zyrd/Xrt. Put plainly: Radiation survival of pancreatic cancer cell lines pre-treated with halofuginone. The format is cell-based, human. The following applies: 250 nM halofuginone for 24 hr, then radiated with 0-8 Gy. On the procedure: Two pancreatic cancer cell lines: 3602 Xrt and 3602 Zyrd/Xrt were incubated with or without 250 nM halofuginone for 24 hr, than radiated with 0-8 Gy. Survival fraction of the cell was determined.

In series [5] the test system is human T98G glioblastoma xenograft (sc tumor). The format is in vivo, mice. The following applies: BCNU 15 mg/kg ip, days 7, 9, 11, alone. The source says:
Each group contained 5 mice.

The test system of series [6] is human T98G glioblastoma (ic tumor). Put plainly: Human T98G glioblastoma implanted intracranially, survival (increase-in-lifespan). The following applies: BCNU 15 mg/kg ip, days 7, 9, 11, alone.
Method: Halofuginone was tested in the human T98G glioblastoma xenograft implanted subcutaneously or intracranially. Mice were implanted with the human T98G glioblastoma tumor cells subcutaneously in a thigh or intracranially.
Halofuginone was administered orally by gavage at dose levels of 0.1,0.2, and 0.5 mg/kg/day, once per day, on days 4 through 34 days post tumor implantation. Each group contained 5 mice.
The endpoint for the subcutaneous tumor was tumor growth delay while the endpoint for the intracranial tumor was increase-in-lifespan (survival).
For series [7] the following is noted: cited from earlier work.
Setting [8] is: 24 hours 10^-7 M halofuginone + 10% FBS, then washed.

Where “and” joins values, the source holds several entries; their conditions need not be identical. Equal entries are not always repeated.

With `O=C(CC1NCCC[C@H]1O)Cn1cnc2cc(Br)c(Cl)cc2c1=O` (stereo in doubt) [halofuginone, 7-bromo-6-chloro-3-[3-(3-hydroxy-2-piperidinyl)-2-oxopropyl]-4(3H)-quinazolinone], the “[3H]-thymidine incorporation” value in series [1] (10^-7 M halofuginone added with 10% FBS to quiescent SMC) is “only low levels”. In series [1] (setting [8]), the “lag before initiation of DNA synthesis after release from growth-arrest” value fell in the range of 4 to 6 h and the “time of peak DNA synthesis after halofuginone removal” value stood at 10 h. In series [1] (continual presence of halofuginone), the “cell cycle phase of arrest” value is listed as “reversibly arrest at late G1 phase”. Besides, in series [2], the “percentage of cells in G0/G1” value came to 65% and the “percentage of cells progressing into G2/M phase” value is given as 7%. Further, the “number of cells arrested in G1 phase” value in the series on U266 cells is on record as “elevation”. Besides, the “leg length difference between the right and left leg” value in series [3] (1-5 μg/mouse ip once daily, 35Gy or 45Gy, 2 and 4 months post radiation) was “dramatic decrease”. Besides, the “condition of irradiated leg (stiffness, skin)” value in series [3] (versus mice that did not receive halofuginone) is “definitely less stiff, and the skin was less dry”. In addition, in series [4], the “decrease in the survival fraction” value is recorded as “approximately 50%”.

In the case of `O=NN(CCCl)C(=O)NCCCl` [BCNU, 1,3-bis(2-chloroethyl)-1-nitrosourea], the “TUMOR GROWTH DELAY Days (sc tumor)” value in series [5] is 3.8 days and 3.9 ± 0.4 days. Moreover, the “SURVIVAL Days (ic tumor)” value in series [6] was determined as 97 ± 21 days.

For the compound Bleomycin, in series [7], the “death of patients associated with pulmonary fibrosis” value is 1% to 2 and the “treated patients with induced pulmonary fibrosis” value is 10% to 30.
